Measured values: US20180118707A1, “BETA-NAPHTHOISOFLAVONES, COMPOSITIONS CONTAINING, AND USES OF, SAME” (Thesan Pharmaceuticals, Inc., priority 2015, published 2018)

Target: T1, Aryl Hydrocarbon Receptor (Homo sapiens, UniProt P35869)
T1 construct: endogenous in cells; host or cells: Normal human keratinocytes (NHK) transduced with the lentivector plox-XRE TATA-Luc (reporter only)
T1 sequence (P35869 11-848): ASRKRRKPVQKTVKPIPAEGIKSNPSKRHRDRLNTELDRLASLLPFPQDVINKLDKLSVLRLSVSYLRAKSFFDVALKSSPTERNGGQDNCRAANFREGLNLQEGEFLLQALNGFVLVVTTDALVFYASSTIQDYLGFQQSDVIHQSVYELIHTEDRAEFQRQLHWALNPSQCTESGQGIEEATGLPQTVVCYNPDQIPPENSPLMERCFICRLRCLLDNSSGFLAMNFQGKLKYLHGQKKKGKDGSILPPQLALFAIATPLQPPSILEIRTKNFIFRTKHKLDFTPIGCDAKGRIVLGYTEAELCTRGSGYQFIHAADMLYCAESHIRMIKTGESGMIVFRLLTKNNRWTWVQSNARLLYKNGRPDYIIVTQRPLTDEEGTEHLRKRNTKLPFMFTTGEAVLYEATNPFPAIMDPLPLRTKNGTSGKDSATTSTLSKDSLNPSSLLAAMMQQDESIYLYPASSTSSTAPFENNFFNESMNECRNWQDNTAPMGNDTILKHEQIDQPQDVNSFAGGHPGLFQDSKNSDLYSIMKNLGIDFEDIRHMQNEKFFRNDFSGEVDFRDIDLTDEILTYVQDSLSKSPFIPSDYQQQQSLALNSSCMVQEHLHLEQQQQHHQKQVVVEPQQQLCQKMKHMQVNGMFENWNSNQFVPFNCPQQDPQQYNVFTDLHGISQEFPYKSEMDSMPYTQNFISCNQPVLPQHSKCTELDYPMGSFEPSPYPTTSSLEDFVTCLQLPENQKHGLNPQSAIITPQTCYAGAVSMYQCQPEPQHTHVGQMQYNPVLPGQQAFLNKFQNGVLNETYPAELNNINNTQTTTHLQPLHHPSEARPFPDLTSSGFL
Assay: AhR activation luciferase reporter in NHK-plox-XRE TATA-Luc cells
Format: cell-based
Details: treatment for 24 h with 1-10 uM
Description: AhR activation is also measured in human skin cells such as normal human keratinocytes (NHK cells) or A431 epidermoid cells stably transfected with the lentivector plox-XRE TATA-Luc. The NHK cells are cultured in a specific keratinocyte SFM medium (Glbco)+penicillin+streptomycin. At D0, the NHK cells are seeded Into 6-well plates in a proportion of approximately 15,000 cells/cm^2. After 24 h, the medium is replaced with fresh medium and the cells are transduced with the lentivector plox-XRE TATA-Luc. After 48 h, the cells are subcultured and maintained in culture, and tested for their reactivity to 3-phenyl-1H-benzo[f]chromen-1-one. The tests are carried out using the luciferase reporter assay system kit from Promega. At D0, the cells are seeded at a density of approximately 60% confluence, and then treated, at D1, with the test substance diluted to various concentrations in the appropriate culture medium. At D2, the cells are lysed in CLB buffer, and the lysate is clarified by centrifugation for 5 min at 10 000 g. The luciferase activity is measured in 20 microliters of lysate as recommended by the supplier, using the luminoskan luminometer (Thermo). […] Data is processed and ECso's can be calculated from standard data monitoring software.

`O=c1cc(-c2ccccc2)oc2ccc3ccccc3c12` [D, 3-Phenyl-1H-benzo[f]chromen-1-one, reference compound] was tested, and the “induction of luciferase activity” value was “significant induction”.
